# Assay results published in paper PMC5218480 (PLoS ONE, 2017).
# Tested on: MV-4-11 cells
# Assay: Gene expression microarray analysis (Affymetrix PrimeView) and GSEA
# Type: cell-based, human
# Design: RFU PODN (11730768_x_at) / Fold change /veh PODN (11730768_x_at) / RFU LINC00158 (11744669_a_at) / Fold change /veh LINC00158 (11744669_a_at) / RFU DUSP10 (11751237_a_at) / Fold change /veh DUSP10 (11751237_a_at) / RFU ID3 (11757404_x_at) / Fold change /veh ID3 (11757404_x_at) / RFU PLEKHG5 (11737974_s_at) / Fold change /veh PLEKHG5 (11737974_s_at) / RFU LRRC4B (11730491_at) / Fold change /veh LRRC4B (11730491_at) / RFU GIMAP4 (11747438_a_at) / Fold change /veh GIMAP4 (11747438_a_at) / RFU KRT8 (11758183_x_at) / Fold change /veh KRT8 (11758183_x_at) / RFU CNN1 (11734310_a_at) / Fold change /veh CNN1 (11734310_a_at) / RFU VPS37D (11726825_at) / Fold change /veh VPS37D (11726825_at) / RFU C10orf10 (11716522_x_at) / Fold change /veh C10orf10 (11716522_x_at) / RFU KIR2DL2 /// KIR2DL4 /// KIR2DL5A /// KIR2DL5B /// KIR2DS1 /// KIR2DS2 /// KIR2DS3 /// KIR2DS4 /// KIR3DL3 /// KIR3DL3 /// KIR3DS1 (11738374_at) / Fold change /veh KIR2DL2 /// KIR2DL4 /// KIR2DL5A /// KIR2DL5B /// KIR2DS1 /// KIR2DS2 /// KIR2DS3 /// KIR2DS4 /// KIR3DL3 /// KIR3DL3 /// KIR3DS1 (11738374_at) / RFU C1QL1 (11718748_at) / Fold change /veh C1QL1 (11718748_at) / RFU TMPRSS4 (11747572_a_at) / Fold change /veh TMPRSS4 (11747572_a_at) / RFU HAMP (11756126_x_at) / Fold change /veh HAMP (11756126_x_at) / RFU RNFT2 (11725882_a_at) / Fold change /veh RNFT2 (11725882_a_at) / RFU NR4A2 (11747474_a_at) / Fold change /veh NR4A2 (11747474_a_at) / RFU ABCC12 (11746883_a_at) / Fold change /veh ABCC12 (11746883_a_at) / RFU TMEM136 (11760407_x_at) / Fold change /veh TMEM136 (11760407_x_at) / RFU CLDN22 /// WWC2 (11732394_at) / Fold change /veh CLDN22 /// WWC2 (11732394_at) / RFU HLA-DPB1 (11760878_x_at) / Fold change /veh HLA-DPB1 (11760878_x_at) / RFU SPINT1 (11716480_a_at) / Fold change /veh SPINT1 (11716480_a_at) / RFU GAP43 (11754022_s_at) / Fold change /veh GAP43 (11754022_s_at) / RFU A4GNT (11735810_at) / Fold change /veh A4GNT (11735810_at) / RFU PRB3 (11715151_x_at) / Fold change /veh PRB3 (11715151_x_at) / RFU TUBB4B (11761932_at) / Fold change /veh TUBB4B (11761932_at) / RFU CAPN14 (11732068_a_at) / Fold change /veh CAPN14 (11732068_a_at) / RFU TMCC2 (11721928_a_at) / Fold change /veh TMCC2 (11721928_a_at) / RFU IRGQ (11745062_a_at) / Fold change /veh IRGQ (11745062_a_at) / RFU FAM174B (11720279_a_at) / Fold change /veh FAM174B (11720279_a_at) / RFU TMPRSS4 (11748680_a_at) / Fold change /veh TMPRSS4 (11748680_a_at) / RFU FAM212B (11763350_a_at) / Fold change /veh FAM212B (11763350_a_at) / RFU PLEKHG5 (11743358_a_at) / Fold change /veh PLEKHG5 (11743358_a_at) / RFU ZSCAN30 (11745921_a_at) / Fold change /veh ZSCAN30 (11745921_a_at) / RFU CMKLR1 (11741424_a_at) / Fold change /veh CMKLR1 (11741424_a_at) / RFU LOC101060620 /// MAPK8IP1 (11723275_at) / Fold change /veh LOC101060620 /// MAPK8IP1 (11723275_at) / RFU SPTSSB (11747773_x_at) / Fold change /veh SPTSSB (11747773_x_at) / RFU PRSS12 (11739890_at) / Fold change /veh PRSS12 (11739890_at) / RFU BIN1 (11741810_x_at) / Fold change /veh BIN1 (11741810_x_at) / RFU WNT11 (11732464_a_at) / Fold change /veh WNT11 (11732464_a_at) / RFU C10orf10 (11716521_a_at) / Fold change /veh C10orf10 (11716521_a_at) / RFU C5orf56 (11738089_at) / Fold change /veh C5orf56 (11738089_at) / RFU CYB561 (11721691_x_at) / Fold change /veh CYB561 (11721691_x_at) / RFU ANKRD19P (11752326_a_at) / Fold change /veh ANKRD19P (11752326_a_at) / RFU OR2T12 /// OR2T33 /// OR2T8 (11738714_s_at) / Fold change /veh OR2T12 /// OR2T33 /// OR2T8 (11738714_s_at) / RFU VCAN (11748164_a_at) / Fold change /veh VCAN (11748164_a_at) / RFU JSRP1 (11732532_at) / Fold change /veh JSRP1 (11732532_at) / RFU KRTAP10-11 (11738290_x_at) / Fold change /veh KRTAP10-11 (11738290_x_at) / RFU MYO3A (11730013_a_at) / Fold change /veh MYO3A (11730013_a_at) / RFU EBF3 (11725865_a_at) / Fold change /veh EBF3 (11725865_a_at) / RFU CAMK2N1 (11719241_x_at) / Fold change /veh CAMK2N1 (11719241_x_at) / RFU C5orf56 (11738088_a_at) / Fold change /veh C5orf56 (11738088_a_at) / RFU OLFML3 (11715873_a_at) / Fold change /veh OLFML3 (11715873_a_at) / RFU LOC100653217 /// NTM (11731650_a_at) / Fold change /veh LOC100653217 /// NTM (11731650_a_at) / RFU MAPK11 (11762145_a_at) / Fold change /veh MAPK11 (11762145_a_at) / RFU FIZ1 (11724087_x_at) / Fold change /veh FIZ1 (11724087_x_at) / RFU OASL (11726364_x_at) / Fold change /veh OASL (11726364_x_at) / RFU SOX15 (11748057_x_at) / Fold change /veh SOX15 (11748057_x_at) / RFU CD79A (11719716_a_at) / Fold change /veh CD79A (11719716_a_at) / RFU HIST1H1D (11736915_at) / Fold change /veh HIST1H1D (11736915_at) / RFU CASKIN2 (11723855_a_at) / Fold change /veh CASKIN2 (11723855_a_at) / RFU LOC730098 (11760151_x_at) / Fold change /veh LOC730098 (11760151_x_at) / RFU OR4N2 (11742367_at) / Fold change /veh OR4N2 (11742367_at) / RFU PRRT2 (11749266_a_at) / Fold change /veh PRRT2 (11749266_a_at) / RFU SNX32 (11753110_a_at) / Fold change /veh SNX32 (11753110_a_at) / RFU CDHR5 (11726645_a_at) / Fold change /veh CDHR5 (11726645_a_at) / RFU RCAN1 (11760418_a_at) / Fold change /veh RCAN1 (11760418_a_at) / RFU FAM167A (11723789_a_at) / Fold change /veh FAM167A (11723789_a_at) / RFU FAM26E (11764081_at) / Fold change /veh FAM26E (11764081_at) / RFU ISYNA1 (11749810_s_at) / Fold change /veh ISYNA1 (11749810_s_at) / RFU ACY1 (11761880_at) / Fold change /veh ACY1 (11761880_at) / RFU 11764098_at / Fold change /veh 11764098_at / RFU SAMD14 (11745864_x_at) / Fold change /veh SAMD14 (11745864_x_at) / RFU NPB (11741838_a_at) / Fold change /veh NPB (11741838_a_at) / RFU TMPRSS6 (11731388_a_at) / Fold change /veh TMPRSS6 (11731388_a_at) / RFU KRTAP10-2 (11738614_at) / Fold change /veh KRTAP10-2 (11738614_at) / RFU ARHGAP8 /// PRR5-ARHGAP8 (11727945_x_at) / Fold change /veh ARHGAP8 /// PRR5-ARHGAP8 (11727945_x_at) / RFU KRTAP5-7 /// NADSYN1 (11734609_at) / Fold change /veh KRTAP5-7 /// NADSYN1 (11734609_at) / RFU RASL12 (11751679_a_at) / Fold change /veh RASL12 (11751679_a_at) / RFU CDKN2B (11736163_a_at) / Fold change /veh CDKN2B (11736163_a_at) / RFU PRF1 (11729649_at) / Fold change /veh PRF1 (11729649_at) / RFU, ZNF638 /// ZNF638-IT1 / Fold change vs veh, ZNF638 /// ZNF638-IT1 / RFU, PANK3 / Fold change vs veh, PANK3 / RFU, SH3YL1 / Fold change vs veh, SH3YL1 / RFU, ZEB2 / Fold change vs veh, ZEB2 / RFU, NRIP1 / Fold change vs veh, NRIP1 / RFU, PTTG1IP / Fold change vs veh, PTTG1IP / RFU, CAPN2 / Fold change vs veh, CAPN2 / RFU, MED14 / Fold change vs veh, MED14 / RFU, SNORA58 / Fold change vs veh, SNORA58 / RFU, C1orf63 / Fold change vs veh, C1orf63 / RFU, LRRFIP1 / Fold change vs veh, LRRFIP1 / RFU, NDUFAF7 / Fold change vs veh, NDUFAF7 / RFU, SLC12A2 / Fold change vs veh, SLC12A2 / RFU, IBTK / Fold change vs veh, IBTK / RFU, ESF1 / Fold change vs veh, ESF1 / Fold change vs veh, TMEM50B / RFU, TAOK1 / Fold change vs veh, TAOK1 / RFU, ACBD3 / Fold change vs veh, ACBD3 / RFU, TMA16 / Fold change vs veh, TMA16 / RFU, RWDD3 / Fold change vs veh, RWDD3 / RFU, BCAT1 / Fold change vs veh, BCAT1 / RFU, EDEM3 / Fold change vs veh, EDEM3 / RFU, TMEM33 / Fold change vs veh, TMEM33 / RFU, WDR75 / Fold change vs veh, WDR75 / RFU, AHCTF1 / Fold change vs veh, AHCTF1 / RFU, TFRC / Fold change vs veh, TFRC / RFU, ZDHHC17 / Fold change vs veh, ZDHHC17 / RFU, NOM1 / Fold change vs veh, NOM1 / RFU, ARL8B / Fold change vs veh, ARL8B / RFU, ZBTB11 / Fold change vs veh, ZBTB11 / RFU, TAMM41 / Fold change vs veh, TAMM41 / RFU, KIAA1704 /// LOC100996395 / Fold change vs veh, KIAA1704 /// LOC100996395 / RFU, ING1 / Fold change vs veh, ING1 / RFU, TRMT61B / Fold change vs veh, TRMT61B / RFU, FUBP3 / Fold change vs veh, FUBP3 / RFU, TP53 / Fold change vs veh, TP53 / RFU, TNKS2 / Fold change vs veh, TNKS2 / RFU, ZFP14 / Fold change vs veh, ZFP14 / RFU, ACTR2 / Fold change vs veh, ACTR2 / RFU, PPP3R1 / Fold change vs veh, PPP3R1 / RFU, PIK3R1 / Fold change vs veh, PIK3R1 / RFU, HNRNPA1 / Fold change vs veh, HNRNPA1 / RFU, RNF170 / Fold change vs veh, RNF170 / RFU, ZNF28 / Fold change vs veh, ZNF28 / RFU, RNGTT / Fold change vs veh, RNGTT / RFU, OGT / Fold change vs veh, OGT / RFU, BRD1 / Fold change vs veh, BRD1 / RFU, MARS / Fold change vs veh, MARS / RFU, ZNF655 / Fold change vs veh, ZNF655 / RFU, FAHD1 / Fold change vs veh, FAHD1 / RFU, BDP1 / Fold change vs veh, BDP1 / RFU, LRRCC1 / Fold change vs veh, LRRCC1 / RFU, ARID1A / Fold change vs veh, ARID1A / RFU, ZNF146 / Fold change vs veh, ZNF146 / RFU, ZNF330 / Fold change vs veh, ZNF330 / RFU, GPN3 / Fold change vs veh, GPN3 / RFU, C9orf123 / Fold change vs veh, C9orf123 / RFU, N4BP2L2 / Fold change vs veh, N4BP2L2 / RFU, ARFIP1 / Fold change vs veh, ARFIP1 / RFU, FAM179B / Fold change vs veh, FAM179B / RFU, BCL10 / Fold change vs veh, BCL10 / RFU, UHRF1BP1L / Fold change vs veh, UHRF1BP1L / RFU, BET1 / Fold change vs veh, BET1 / RFU, CNOT2 / Fold change vs veh, CNOT2 / RFU, ZNF268 / Fold change vs veh, ZNF268 / Fold change vs veh, ZNF507 / RFU, DGCR2 / Fold change vs veh, DGCR2 / RFU, WDSUB1 / Fold change vs veh, WDSUB1 / Fold change vs veh, HSP90B1 /// MIR3652 / RFU, ADSS / Fold change vs veh, ADSS / RFU, GK / Fold change vs veh, GK / RFU, ZNF148 / Fold change vs veh, ZNF148 / RFU, TAF9 / Fold change vs veh, TAF9 / RFU, SLC1A5 / Fold change vs veh, SLC1A5 / RFU, SLMO2 / Fold change vs veh, SLMO2 / RFU, ABCC4 / Fold change vs veh, ABCC4 / RFU, LOC101060439 /// RAP1B / Fold change vs veh, LOC101060439 /// RAP1B / RFU, RFX7 / Fold change vs veh, RFX7 / RFU, GTPBP10 / Fold change vs veh, GTPBP10 / RFU, CNEP1R1 / Fold change vs veh, CNEP1R1 / RFU, BIVM-ERCC5 /// ERCC5 / Fold change vs veh, BIVM-ERCC5 /// ERCC5 / RFU, ILF3 / Fold change vs veh, ILF3 / RFU 11762660_at / Fold change /veh 11762660_at / RFU VCAN (11757783_s_at) / Fold change /veh VCAN (11757783_s_at) / RFU DDX43 (11728927_at) / Fold change /veh DDX43 (11728927_at) / RFU KRT8 (11758188_x_at) / Fold change /veh KRT8 (11758188_x_at) / RFU NKD1 (11759106_at) / Fold change /veh NKD1 (11759106_at) / RFU SRD5A1 (11742802_a_at) / Fold change /veh SRD5A1 (11742802_a_at) / RFU TPSAB1 /// TPSB2 (11721975_s_at) / Fold change /veh TPSAB1 /// TPSB2 (11721975_s_at) / RFU GSTM3 (11746129_a_at) / Fold change /veh GSTM3 (11746129_a_at) / RFU IL23R (11737362_x_at) / Fold change /veh IL23R (11737362_x_at) / RFU TMEM51 (11727254_a_at) / Fold change /veh TMEM51 (11727254_a_at) / RFU PIWIL2 (11732686_x_at) / Fold change /veh PIWIL2 (11732686_x_at) / RFU ORM1 (11744905_x_at) / Fold change /veh ORM1 (11744905_x_at) / RFU CCDC152 (11743942_at) / Fold change /veh CCDC152 (11743942_at) / RFU ECM1 (11717891_a_at) / Fold change /veh ECM1 (11717891_a_at) / RFU IL23R (11748794_a_at) / Fold change /veh IL23R (11748794_a_at) / RFU TNFAIP8L3 (11732012_x_at) / Fold change /veh TNFAIP8L3 (11732012_x_at) / RFU MBOAT4 (11741988_at) / Fold change /veh MBOAT4 (11741988_at) / RFU 11764193_at / Fold change /veh 11764193_at / RFU TMEM53 (11763286_at) / Fold change /veh TMEM53 (11763286_at) / RFU MAGEB2 (11727129_at) / Fold change /veh MAGEB2 (11727129_at) / RFU TMEM200A (11744735_a_at) / Fold change /veh TMEM200A (11744735_a_at) / RFU CCDC152 (11751479_a_at) / Fold change /veh CCDC152 (11751479_a_at) / RFU FAM211A (11726209_a_at) / Fold change /veh FAM211A (11726209_a_at) / RFU RGS16 (11746705_a_at) / Fold change /veh RGS16 (11746705_a_at) / RFU VCAN (11755009_s_at) / Fold change /veh VCAN (11755009_s_at) / RFU RHOB (11743442_s_at) / Fold change /veh RHOB (11743442_s_at) / RFU RGS16 (11720943_a_at) / Fold change /veh RGS16 (11720943_a_at) / RFU RGS16 (11720944_at) / Fold change /veh RGS16 (11720944_at) / RFU, VPS4B / Fold change vs veh, VPS4B / RFU, CREB1 / Fold change vs veh, CREB1 / RFU, DNAJC13 / Fold change vs veh, DNAJC13 / RFU, GNAQ / Fold change vs veh, GNAQ / RFU, CDK5R1 / Fold change vs veh, CDK5R1 / RFU, ZRANB3 / Fold change vs veh, ZRANB3 / RFU, CUL4A / Fold change vs veh, CUL4A / RFU, CCNY / Fold change vs veh, CCNY / RFU, UFL1 / Fold change vs veh, UFL1 / RFU, COG3 / Fold change vs veh, COG3 / RFU, DIAPH2 / Fold change vs veh, DIAPH2 / RFU, SKA2 / Fold change vs veh, SKA2 / RFU, AFF3 / Fold change vs veh, AFF3 / RFU, LMF1 / Fold change vs veh, LMF1 / RFU, IPO11 / Fold change vs veh, IPO11 / RFU, DFFB / Fold change vs veh, DFFB / RFU, FOXP1 / Fold change vs veh, FOXP1 / RFU, CARD8 / Fold change vs veh, CARD8 / RFU, STRN3 / Fold change vs veh, STRN3 / RFU, ADK / Fold change vs veh, ADK / RFU, RASSF2 / Fold change vs veh, RASSF2 / RFU, WIPF1 / Fold change vs veh, WIPF1 / RFU, LARP1B / Fold change vs veh, LARP1B / RFU, RASA1 / Fold change vs veh, RASA1 / RFU, RB1 / Fold change vs veh, RB1 / RFU, PPFIA1 / Fold change vs veh, PPFIA1 / RFU, MAT2A / Fold change vs veh, MAT2A / RFU, CCT5 / Fold change vs veh, CCT5 / RFU, WDR92 / Fold change vs veh, WDR92 / RFU, CUX1 / Fold change vs veh, CUX1 / RFU, TTC7A / Fold change vs veh, TTC7A / RFU, TMEM135 / Fold change vs veh, TMEM135 / RFU, DEPTOR / Fold change vs veh, DEPTOR / RFU, CPM / Fold change vs veh, CPM / RFU, DNAJB6 / Fold change vs veh, DNAJB6 / RFU, CACNA2D3 / Fold change vs veh, CACNA2D3 / RFU, DTX4 / Fold change vs veh, DTX4 / RFU, TFCP2 / Fold change vs veh, TFCP2 / RFU, GMCL1 /// GMCL1P1 / Fold change vs veh, GMCL1 /// GMCL1P1 / RFU, AEBP2 / Fold change vs veh, AEBP2 / RFU, SNHG1 /// SNORD22 /// SNORD25 /// SNORD26 /// SNORD27 /// SNORD28 /// SNORD29 /// SNORD31 / Fold change vs veh, SNHG1 /// SNORD22 /// SNORD25 /// SNORD26 /// SNORD27 /// SNORD28 /// SNORD29 /// SNORD31 / Fold change (Aza/veh), C12orf56 (ProbeSet 11735607_a_at) / Fold change (ACY-1035/veh), C12orf56 (ProbeSet 11735607_a_at) / Fold change (Aza/veh), FGFR1OP (ProbeSet 11751329_s_at) / Fold change (ACY-1035/veh), FGFR1OP (ProbeSet 11751329_s_at) / Fold change (Aza/veh), VPS36 (ProbeSet 11739960_a_at) / Fold change (ACY-1035/veh), VPS36 (ProbeSet 11739960_a_at) / RFU SYPL1 (11715823_x_at) / Fold change /veh SYPL1 (11715823_x_at) / RFU IGFBP7 (11715501_s_at) / Fold change /veh IGFBP7 (11715501_s_at) / RFU REEP3 (11722064_at) / Fold change /veh REEP3 (11722064_at) / RFU IGLL1 (11728026_x_at) / Fold change /veh IGLL1 (11728026_x_at): dose or concentration left out as unconfirmed
# Settings: MV-4-11 cells, 48 hours
smiles,measurement,value
Nc1ccc(-c2cccs2)cc1NC(=O)c1ccc2c(c1)cc(C1CC1)n2CCN1CCOCC1 [ACY-1035],Fold change /veh KRT8 (11758188_x_at),1.06
